One molecule from BindingDB's records for doi:10.1021/jm8008629 (Wayne State University, 2008) can be followed below.

The target of assay [1] is D(3) dopamine receptor (Rattus norvegicus, UniProt P19020). As to the kind of experiment: Displacement of [3H]Spiperone from rat dopamine D3 receptor expressed in HEK293 cells. On the technique in general: In a radioligand displacement assay an active substance lowers the binding of a labelled ligand.
Assay [2] has as its target D(2) dopamine receptor (Rattus norvegicus, UniProt P61169). Nature of the assay: Displacement of [3H]Spiperone from rat dopamine D2L receptor expressed in HEK293 cells.

Broadly, the Ki is a measure of affinity in units of concentration, obtained from inhibition or displacement. A higher Ki goes with a looser hold on the target.

Sequence of D(2) dopamine receptor (P61169 whole entry): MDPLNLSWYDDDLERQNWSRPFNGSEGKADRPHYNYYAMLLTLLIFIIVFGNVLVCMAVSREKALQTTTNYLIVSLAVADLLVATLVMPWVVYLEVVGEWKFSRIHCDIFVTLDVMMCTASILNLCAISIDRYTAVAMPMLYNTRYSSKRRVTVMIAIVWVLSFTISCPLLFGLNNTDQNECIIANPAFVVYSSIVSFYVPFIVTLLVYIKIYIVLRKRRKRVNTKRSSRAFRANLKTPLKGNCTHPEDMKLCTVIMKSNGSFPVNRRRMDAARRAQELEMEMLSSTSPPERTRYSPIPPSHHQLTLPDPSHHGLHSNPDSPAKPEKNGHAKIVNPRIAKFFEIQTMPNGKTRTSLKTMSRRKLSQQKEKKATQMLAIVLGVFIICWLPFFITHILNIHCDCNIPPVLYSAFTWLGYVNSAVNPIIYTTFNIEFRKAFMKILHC
Sequence of D(3) dopamine receptor (P19020 whole entry): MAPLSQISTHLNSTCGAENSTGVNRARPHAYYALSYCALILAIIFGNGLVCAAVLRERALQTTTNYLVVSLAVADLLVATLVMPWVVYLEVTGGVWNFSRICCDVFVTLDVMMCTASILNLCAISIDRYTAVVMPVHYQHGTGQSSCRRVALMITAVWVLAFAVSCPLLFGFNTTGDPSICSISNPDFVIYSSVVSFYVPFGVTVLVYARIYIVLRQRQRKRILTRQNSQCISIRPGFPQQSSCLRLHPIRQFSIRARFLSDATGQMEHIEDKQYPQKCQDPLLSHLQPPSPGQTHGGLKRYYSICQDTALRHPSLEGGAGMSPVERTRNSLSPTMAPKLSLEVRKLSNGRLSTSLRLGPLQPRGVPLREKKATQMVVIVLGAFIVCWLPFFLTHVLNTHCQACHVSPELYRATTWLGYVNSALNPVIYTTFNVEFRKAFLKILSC

Take `Oc1ccc2c(c1)C[C@@H]1[C@@H](CCCN1CCN1CCN(c3ccccc3)CC1)C2` (racemic) [(+/-)-cis-1-[2-(4-Phenylpiperazin-1-yl)ethyl]-1,2,3,4,4a,5,10,10a-octahydrobenzo[g]quinolin-8-ol]: the Ki in assay [1] was found to be 419 nM; in assay [2], 3330 nM.
